Measurements reported in patent publication US6552069B1, “3-methyl-chroman and -thiochroman derivatives” (Chugai Seiyaku Kabushiki Kaisha, priority 1999, dated 2003).

Test system: estradiol-induced increase in uterine weight
Experiment: Anti-estrogenic activity (oral administration) in ovariectomized mice administered with 17β-estradiol
Type: in vivo
Settings: 10 mg/kg p.o. once a day for 3 days, suspended in 5% arabic gum, ovariectomized ICR mice given 17β-estradiol-benzoate 0.1 μg/mouse s.c. for 3 days, uteri weighed 24 hours after last administration
Procedure: Test compounds were assayed for their oral anti-estrogenic activity in the following manner. In this experiment, the compounds prepared in Examples mentioned above were used as test compounds. As control compounds, the following three were used: a compound described in Example 7 of WO98/25916; ZM; and a compound corresponding to general formula (1) of the present invention, provided that R2 was a C2 perfluoroalkyl group (perfluoroethyl), i.e., 10-[(3RS,4RS)-7-hydroxy-3-(4-hydroxyphenyl)-3-methylthiochroman-4-yl]-2-(4,4,5,5,5-pentafluoropentyl)decanoic acid, which had been synthesized according to Reaction Schemes 1 to 7 mentioned above.
In this experiment, each of the test and control compounds was suspended in 5% arabic gum solution and orally administered for 3 days on a once-a-day basis. After 24 hours from the last administration, the test animals were sacrificed and the uteri were removed and weighed.

SMILES	inhibition in vivo at 10 mg/kg
C[C@@]1(c2ccc(O)cc2)CSc2cc(O)ccc2[C@@H]1CCCCCCCCC(CCCC(F)(F)C(F)(F)F)C(=O)O (mixture of isomers) [10-[(3RS,4RS)-7-hydroxy-3-(4-hydroxyphenyl)-3-methylthiochroman-4-yl]-2-(4,4,5,5,5-pentafluoropentyl)decanoic acid, reference compound]	75%
C[C@@]1(c2ccc(O)cc2)CSc2cc(O)ccc2[C@@H]1CCCCCCCCC(CCC(F)(F)C(F)(F)C(F)(F)C(F)(F)F)C(=O)O (mixture of isomers) [Example 8, 10-[(3RS,4RS)-7-hydroxy-3-(4-hydroxyphenyl)-3-methylthiochroman-4-yl]-2-(3,3,4,4,5,5,6,6,6-nonafluorohexyl)decanoic acid]	93%
C[C@@]1(c2ccc(O)cc2)CSc2cc(O)ccc2[C@@H]1CCCCCCCCC(CCCC(F)(F)C(F)(F)C(F)(F)C(F)(F)F)C(=O)O (mixture of isomers) [Example 9, 10-[(3RS,4RS)-7-hydroxy-3-(4-hydroxyphenyl)-3-methylthiochroman-4-yl]-2-(4,4,5,5,6,6,7,7,7-nonafluoroheptyl)decanoic acid]	93%
C[C@@]1(c2ccc(O)cc2)CSc2cc(O)ccc2[C@@H]1CCCCCCCCCC(CCC(F)(F)C(F)(F)C(F)(F)C(F)(F)F)C(=O)O (mixture of isomers) [Example 11, 11-[(3RS,4RS)-7-hydroxy-3-(4-hydroxyphenyl)-3-methylthiochroman-4-yl]-2-(3,3,4,4,5,5,6,6,6-nonafluorohexyl)undecanoic acid]	85%
C[C@@]1(c2ccc(O)cc2)CSc2cc(O)ccc2[C@@H]1CCCCCCCCCC(CCCC(F)(F)C(F)(F)C(F)(F)C(F)(F)F)C(=O)O (mixture of isomers) [Example 12, 11-[(3RS,4RS)-7-hydroxy-3-(4-hydroxyphenyl)-3-methylthiochroman-4-yl]-2-(4,4,5,5,6,6,7,7,7-nonafluoroheptyl)undecanoic acid]	86%
C[C@@]1(c2ccc(O)cc2)COc2cc(O)ccc2[C@@H]1CCCCCCCCC(CCC(F)(F)C(F)(F)C(F)(F)C(F)(F)F)C(=O)O (mixture of isomers) [Example 13, 10-[(3RS,4RS)-7-hydroxy-3-(4-hydroxyphenyl)-3-methylchroman-4-yl]-2-(3,3,4,4,5,5,6,6,6-nonafluorohexyl)decanoic acid]	84%
C[C@@]1(c2ccc(O)cc2)COc2cc(O)ccc2[C@@H]1CCCCCCCCCC(CCC(F)(F)C(F)(F)C(F)(F)C(F)(F)F)C(=O)O (mixture of isomers) [Example 14, 11-[(3RS,4RS)-7-hydroxy-3-(4-hydroxyphenyl)-3-methylchroman-4-yl]-2-(3,3,4,4,5,5,6,6,6-nonafluorohexyl)undecanoic acid]	88%
C[C@@]1(c2ccc(O)cc2)COc2cc(O)ccc2[C@@H]1CCCCCCCCC(CCCC(F)(F)C(F)(F)C(F)(F)C(F)(F)F)C(=O)O (mixture of isomers) [Example 15, 10-[(3RS,4RS)-7-hydroxy-3-(4-hydroxyphenyl)-3-methylchroman-4-yl]-2-(4,4,5,5,6,6,7,7,7-nonafluoroheptyl)decanoic acid]	92%
C[C@@]1(c2ccc(O)cc2)COc2cc(O)ccc2[C@@H]1CCCCCCCCCC(CCCC(F)(F)C(F)(F)C(F)(F)C(F)(F)F)C(=O)O (mixture of isomers) [Example 16, 11-[(3RS,4RS)-7-hydroxy-3-(4-hydroxyphenyl)-3-methylchroman-4-yl]-2-(4,4,5,5,6,6,7,7,7-nonafluoroheptyl)undecanoic acid]	91%
C[C@@]1(c2ccc(O)cc2)CSc2cc(O)ccc2[C@@H]1CCCCCCCCC(CCC(F)(F)C(F)(F)C(F)(F)C(F)(F)F)C(=O)O (single isomer, unassigned) [Example 21, Peak 1]	89%
CC1(c2ccc(O)cc2)COc2cc(O)ccc2C1CCCCCCCCCC(CCC(F)(F)C(F)(F)C(F)(F)C(F)(F)F)C(=O)O (single isomer, unassigned) [Example 24, Peak 1, 11-[7-hydroxy-3-(4-hydroxyphenyl)-3-methylchroman-4-yl]-2-(3,3,4,4,5,5,6,6,6-nonafluorohexyl)undecanoic acid]	85%
